# Measured values published in ChEMBL document CHEMBL5252541, “Repurposing antipsychotic drugs into antifungal agents: Synergistic combinations of azoles and bromperidol derivatives in the treatment of various fungal infections” (Eur J Med Chem, 2017).
# Legend:
# HEK293 [1] = test: Cytotoxicity against HEK293 cells assessed as cell survival at 8 microg/ml by XTT assay; type: toxicity, cell-based; details: human, dose 8 µg/ml
# J774.A1 = test: Cytotoxicity against mouse J774.A1 cells assessed as cell survival up to 4 microg/ml by XTT assay; type: toxicity, cell-based; details: dose < 4 µg/ml
# Nakaseomyces glabratus [2] = test: Synergistic antifungal activity against Candida glabrata ATCC 2001 assessed as posaconazole MIC measured after 48 hrs by checkboard based microplate reader analysis; type: functional
# Candida albicans [3] = test: Antifungal activity against Candida albicans ATCC MYA-1237 measured after 48 hrs by broth microdilution analysis; type: functional
# Candida albicans [4] = test: Synergistic antifungal activity against Candida albicans ATCC MYA-2310 assessed as posaconazole MIC measured after 48 hrs by checkboard based microplate reader analysis; type: functional
# Candida albicans [5] = test: Synergistic antifungal activity against Candida albicans ATCC 90819 assessed as posaconazole MIC measured after 48 hrs by checkboard based microplate reader analysis; type: functional
# [6] = Cytotoxicity against human BEAS-2B cells assessed as cell survival by XTT assay; type: toxicity, cell-based; details: read-out: Activity
# HEK293 [7] = test: Cytotoxicity against HEK293 cells assessed as cell survival up to 4 microg/ml by XTT assay; type: toxicity, cell-based; details: human, dose < 4 µg/ml
# Candida albicans [8] = test: Antifungal activity against Candida albicans ATCC 10231 measured after 48 hrs by broth microdilution analysis; type: functional
# [9] = Cytotoxicity against mouse J774.A1 cells assessed as cell survival at 16 microg/ml by XTT assay; type: toxicity, cell-based; details: at 16 µg/mL, read-out: Activity
# Candida albicans [10] = test: Antifungal activity against Candida albicans ATCC 64124 measured after 48 hrs by broth microdilution analysis; type: functional
# [11] = Cytotoxicity against HEK293 cells assessed as cell survival at 16 microg/ml by XTT assay; type: toxicity, cell-based; details: human, at 16 µg/mL, read-out: Activity
# [12] = Cytotoxicity against HEK293 cells assessed as cell survival by XTT assay; type: toxicity, cell-based; details: human, read-out: Activity
# Candida albicans [13] = test: Synergistic antifungal activity against Candida albicans ATCC 10231 assessed as posaconazole MIC measured after 48 hrs by checkboard based microplate reader analysis; type: functional
# Nakaseomyces glabratus [14] = test: Antifungal activity against Candida glabrata ATCC 2001 measured after 48 hrs by broth microdilution analysis; type: functional
# Aspergillus terreus [15] = test: Antifungal activity against Aspergillus terreus ATCC MYA-3633 measured after 48 hrs by broth microdilution analysis; type: functional
# Candida albicans [16] = test: Synergistic antifungal activity against Candida albicans ATCC MYA-1003 assessed as posaconazole MIC measured after 48 hrs by checkboard based microplate reader analysis; type: functional
# BEAS-2B = test: Cytotoxicity against human BEAS-2B cells assessed as cell survival up to 4 microg/ml by XTT assay; type: toxicity, cell-based; details: dose < 4 µg/ml
# [17] = Cytotoxicity against mouse J774.A1 cells assessed as cell survival at 8 microg/ml by XTT assay; type: toxicity, cell-based; details: J774.A1 cells, at 8 µg/mL, read-out: Activity
# Candida albicans [18] = test: Synergistic antifungal activity against Candida albicans ATCC MYA-2876 assessed as posaconazole MIC measured after 48 hrs by checkboard based microplate reader analysis; type: functional
# Candida albicans [19] = test: Antifungal activity against Candida albicans ATCC MYA-1003 measured after 48 hrs by broth microdilution analysis; type: functional
# Aspergillus terreus [20] = test: Synergistic antifungal activity against Aspergillus terreus ATCC MYA-3633 assessed as posaconazole MIC measured after 48 hrs by checkboard based microplate reader analysis; type: functional
# Candida albicans [21] = test: Antifungal activity against Candida albicans ATCC MYA-2876 measured after 48 hrs by broth microdilution analysis; type: functional
# Candida albicans [22] = test: Synergistic antifungal activity against Candida albicans ATCC MYA-1237 assessed as posaconazole MIC measured after 48 hrs by checkboard based microplate reader analysis; type: functional
# [23] = Cytotoxicity against mouse J774.A1 cells assessed as cell survival by XTT assay; type: toxicity, cell-based; details: read-out: Activity
# Candida albicans [24] = test: Antifungal activity against Candida albicans ATCC 90819 measured after 48 hrs by broth microdilution analysis; type: functional
# Candida albicans [25] = test: Additive antifungal activity against Candida albicans ATCC MYA-1237 assessed as fractional inhibitory concentration index measured for 72 hrs in presence of posaconazole; type: functional
# Candida albicans [26] = test: Synergistic antifungal activity against Candida albicans ATCC 64124 assessed as posaconazole MIC measured after 48 hrs by checkboard based microplate reader analysis; type: functional
compound,measurement,setting,value
CC[C@@H]([C@H](C)O)n1ncn(-c2ccc(N3CCN(c4ccc(OC[C@@H]5CO[C@@](Cn6cncn6)(c6ccc(F)cc6F)C5)cc4)CC3)cc2)c1=O [POSACONAZOLE],Activity,HEK293 [1],Non-Toxic
same,Activity,J774.A1,Non-Toxic
same,MIC,Nakaseomyces glabratus [2],0.25 µg/mL
same,MIC,Candida albicans [3],> 32 µg/mL
same,MIC,Candida albicans [4],0.5 µg/mL
same,MIC,Candida albicans [5],0.25 µg/mL
same,viability,[6],> 100%
same,Activity,HEK293 [7],Non-Toxic
same,MIC,Candida albicans [8],1 µg/mL
same,viability at 16 microg/ml,[9],46%
same,MIC,Candida albicans [10],> 32 µg/mL
same,viability at 16 microg/ml,[11],45%
same,viability,[12],> 100%
same,MIC,Candida albicans [13],0.125 µg/mL
same,MIC,Nakaseomyces glabratus [14],> 32 µg/mL
same,MIC,Aspergillus terreus [15],0.25 µg/mL
same,MIC,Candida albicans [16],0.5 µg/mL
same,Activity,BEAS-2B,Non-Toxic
same,viability at 8 microg/ml,[17],80%
same,MIC,Candida albicans [18],> 32 µg/mL
same,MIC,Candida albicans [19],> 32 µg/mL
same,MIC,Aspergillus terreus [20],0.25 µg/mL
same,MIC,Candida albicans [21],> 32 µg/mL
same,MIC,Candida albicans [22],0.5 µg/mL
same,viability,[23],> 100%
same,MIC,Candida albicans [24],> 32 µg/mL
same,fractional inhibitory concentration index (FICI),Candida albicans [25],2
same,MIC,Candida albicans [26],2 µg/mL
